According to patent US20190345121A1, “PYRENE-BASED COMPOUNDS FOR INTRACELLULAR ORGANELLE IMAGING APPLICATIONS” (priority 2018, published 2019):

Tests used:
[1] = in the presence of DNA in Tris buffer; cited from earlier work
[2] = tested on: DNA; assay: Fluorescence titration with DNA in PBS buffer; assay type: binding; details: PBS buffer pH=7.4, DNA <25 μg mL^−1
Source text: The pyrene segment of the pyrene-based compounds having a pyridinium group of the present invention is thought to play an important role in the interaction of probes made with the pyrene-based compounds having a pyridinium group of the present invention with DNA, as planar aromatic compounds are usually regarded as DNA intercalators. In order to shed some light on the interaction between probes made from the pyrene-based compounds having a pyridinium group of the present invention and DNA, fluorescence spectra were acquired when DNA was added into probes made from the pyrene-based compounds having a pyridinium group of the present invention in a PBS buffer solution (pH=7.4). […] Therefore, the initial fluorescence quenching was attributed to the interaction between probes made from the pyrene-based compounds having a pyridinium group of the present invention and DNA, possibly involving insertion of dye molecules into DNA groves.

[3] = tested on: A549 cells; assay: Long-term imaging ability; assay type: cell-based, human
Procedure: For the long-term imaging ability assessment aspect of the experiment, a Zeiss LSM 710 fluorescence confocal microscope with identical settings were used for photostability comparisons of the probes (561 nm (15 mW) laser line; Laser power percentage 1.0; Digital zoom=1; Pinhole=1A U; Master Gain=500; Digital offset=0). Different imaging plates with A549 cells were incubated for 30 minutes at […] with probes made using solutions of the pyrene-based compounds having a benzothiazolium group of the present invention as well as with probes made from LysoTracker® Red DND-99. Fluorescence confocal microscopy images were obtained at 30-minute intervals (identical fluorescence microscopy settings were used during the experiments). ImageJ (NIH) software was used to analyze the obtained images and average relative fluorescence intensity was plotted as a function of time.
The lack of cellular pH perturbation, in addition to its low toxicity, raised the possibility of using the pyrene-based compounds having a benzothiazolium group of the present invention for long term lysosome imaging. Thus, A549 cells were treated with a pyrene-based compound having a benzothiazolium group of the present invention (500 nM) over a period of 6 hours, which gave stable fluorescent confocal microscopy images as shown in FIG. 4A. […]

CN(C)CCNc1ccc(O)c2c1C(=O)c1c(O)ccc(NCCN(C)C)c1C2=O [DRAQ5]
fluorescence quantum yield ϕfl [1]: about 0.003 | fluorescence change on initial addition of DNA [2]: partial fluorescence quenching

CN(C)CCNC(=O)CCc1ccc2n1[B-](F)(F)[N+]1=C(c3ccc[nH]3)C=CC1=C2 [LysoTracker® Red DND-99]
cell morphology during long-term imaging ([3]; after 1.5 hours): significant morphological changes and notable cell shrinkage | average fluorescence intensity vs. staining time ([3]; images every 30 minutes): significant decrease in relative intensity
